Key:
CT26 colon cancer cells [1] = assay: CT26 colon tumor model, metal ion plus STING agonist CDA, intratumoral; assay type: in vivo, Balb/c mice; settings: CT26 tumor-bearing mice
Description: FIG. 6: Enhanced STING activation and cancer therapy efficacy by Co^2+ and Mn^2+ in vivo. a) individual tumor growth curve after three dose of intratumor injection of the indicated formulation at day 9, 12, 15 after tumor inoculation. b) Serum IFN-beta concentration 8 h after the 1st dose of the indicated formulation. c-d) individual tumor growth (c) and survival (d) of the tumor bearing mice after treated with the indicated formulations.
FIG. 7: Enhanced STING activation by Co^2+ and Mn^2+ led to improved antigen specific immune response after in vivo. a) the percentage of AH1-specific CD8+ T cells among PBMC on day 16. b) IFN-γ secreting cells counts per 5E4 PBMCs after stimulation with AH1 peptides at day 22. c-e) timeline (c). tumor growth curve (d) and AH1-specific CD8+ T cells percentage in spleen CD8+ T cells (e) in tumor re-challenging study starting from day 81. […]
We examined whether the enhanced type-I IFN response in vitro could benefit cancer treatment in vivo. We evaluated the combination of metal ions and STING agonist in a murine tumor model.
To study the mechanisms of action for the improved cancer therapy efficacy, we evaluated the treated animals for antigen-specific T cell responses and performed tumor re-challenging study after 81 days of the initial treatment.

[2] = test system: cGAS-STING-Type I IFN pathway; assay: Inhibition of DNA/lipofectamine-induced IFN-I response in THP 1 dual-KI-hSTING WT(R232) reporter cells; assay type: cell-based, human; settings: DNA/lipofectamine complex challenging, ISRE induced luminescence
Text: (§1) FIG. 18: Chelating metal ions to inhibit cGAS-STING-Type I IFN pathway. a) Molecular structure of representative chelators that could inhibit cGAS-STING-Type I IFN pathway. b-c) Dose-inhibition curves of the IFN-I response (b) and NF-kB inflammation response (c) by the indicated compounds in DNA/lipofectamine 2000 (ThermoFisher, 11668027) treated THP 1 dual-KI-hSTING^WT(R232) reporter cells (Invivogen, thpd-r232). d) Cellular viability of b-c. e) Dose-inhibition curves of the IFN-I response by the indicated compounds in DNA/lipofectamine 2000 (ThermoFisher, 11668027) treated THP 1-ISG hSTING^HAQ reporter cells (Invivogen, thp-isg). […]
(§2) Given the interesting function of metal ions on modulating innate immune response in our finding, we further evaluated whether chelating metal ions could inhibit the according innate immune pathways, which may be used to treat autoimmune diseases, such as Systemic lupus erythematosus, Aicardi-Goutières syndrome, Acute pancreatitis Age-dependent macular degeneration, Alcoholic liver disease, Liver fibrosis, Metastasis, Myocardial infarction, Nonalcoholic steatohepatitis (NASH), Parkinson's disease, Polyarthritis/fetal and neonatal anemia, Sepsis, inflammatory bowel disease, multiple sclerosis, etc. […] By a ISRE induced luminescence, we could read the degree of inhibition. […]

[3] = test system: THP 1 dual-KI-hSTING^WT(R232) reporter cells; assay: Cellular viability of chelator-treated THP 1 dual-KI-hSTING WT(R232) reporter cells; assay type: cell-based, human
Text: as §1, §2

CT26 colon cancer cells [4] = test system: CT26 colon cancer cells
Description: When tumor size reach ˜60 mm^3, 2 doses of 25 μg/dose cdAMP(ps)2 were administrated intra-tumorally on days 10 and 15. To evaluate antigen-specific immune responses, PBMCs were collected for tetramer staining on day 17 and ELISPOT analysis with AH1 antigen peptides on day 22.
Female Balb/c mice of age 6-8 weeks (Jackson Laboratories) were inoculated with 1×10^5 CT26 colon cancer cells. When tumor size achieved ˜100 mm^3, 2 doses of 25 μg cdAMP(ps)2 in different formulations were administrated via intra-tumoral route on day 10 and day 15. Tumor size and survival were monitored every 2 or 3 days. Tumor size was calculated based on equation: volume=length×width^2×0.5. Animals were euthanized when the tumor reached 1.5 cm in diameter or when animals became moribund with severe weight loss or ulceration. At day 17, the percentages of tumor antigen-specific CD8α+ T cells among PBMC were analyzed using the tetramer staining assay as described previously with peptide-MHC tetramer (H-2Kb-restricted AH1) (the NIH Tetramer Core Facility, Atlanta, GA). On day 22, ELISPOT assay was performed with PBMC from the treated mice as described previously.
We also evaluated a subset of the formulations mentioned above in tumor-bearing mice. When tumor size reached ˜60 mm^3, 2 doses of indicated formulation with 25 μg/dose adAMP(ps)2 were administrated intratumorally on days 10 and 15.

Row | Molecule | survival rate (CT26 colon cancer cells [1]) [%] | IC50 of DNA-induced Type I IFN response [2] | tolerability in in-vitro assay (cellular viability) [3] | AH1 antigen-specific T cell response (ELISPOT) (CT26 colon cancer cells [4]; PBMC, day 22, seven days after the 2nd dose) | complete tumor regression (CT26 colon cancer cells [4]; number of mice out of 5)
1 | Nc1ncnc2c1ncn2[C@@H]1O[C@@H]2COP(=O)(O)O[C@H]3[C@@H](O)[C@H](n4cnc5c(N)ncnc54)O[C@@H]3COP(=O)(O)O[C@H]2[C@H]1O [free CDA] | 20 |  |  |  | 
2 | O=C(OC[C@H]1O[C@@H](OC(=O)c2cc(O)c(O)c(OC(=O)c3cc(O)c(O)c(O)c3)c2)[C@H](OC(=O)c2cc(O)c(O)c(OC(=O)c3cc(O)c(O)c(O)c3)c2)[C@@H](OC(=O)c2cc(O)c(O)c(OC(=O)c3cc(O)c(O)c(O)c3)c2)[C@@H]1OC(=O)c1cc(O)c(O)c(OC(=O)c2cc(O)c(O)c(O)c2)c1)c1cc(O)c(O)c(OC(=O)c2cc(O)c(O)c(O)c2)c1 [tannin acid] |  | as low as nanomolar level | well-tolerated |  | 
3 | cdAMP(ps)2 [free CDN] |  |  |  | significant | 2 out of 5
4 | O=C1O[C@H]2[C@@H]3OC(=O)c4cc(O)c(O)c(O)c4-c4c(O)c(O)c5oc(=O)c6c(c(O)c(O)c7oc(=O)c4c5c76)-c4c(cc(O)c(O)c4O)C(=O)OC[C@H]3OC(O)[C@@H]2OC(=O)c2cc(O)c(O)c(O)c2-c2c1cc(O)c(O)c2O (mixture of isomers) [Punicalagin] |  | as low as nanomolar level | well-tolerated |  | 
